For this assay, the system named is CD2F1 mice, L1210 leukemia ip, survival T/C. The assay can be described thus: NCI In Vivo Anticancer Drug Screen. Data for tumor model L1210 Leukemia (intraperitoneal) in CD2F1 (CDF1) mice. Particulars: higher = longer survival. On the procedure: The antitumor activity of compounds was measured in mice bearing transplantable tumors. Survival or tumor size were measured and the results are expressed as the measurement made in the treated group (T) divided by the measurement made in the vehicle treated control group (C). The tumor model used in this assay is L1210 Leukemia (intraperitoneal) in CD2F1 (CDF1) mice

The mark [1] stands for this setting: endpoint: mean survival time, dose: 100.0 mg/kg/injection, schedule: Q01DX001 (ip), vehicle: saline with Tween-80.
Setting [2] is: endpoint: mean survival time, dose: 100.0 mg/kg/injection, schedule: Q04DX003 (ip), vehicle: saline with Tween-80.
[3] abbreviates: endpoint: mean survival time, dose: 200.0 mg/kg/injection, schedule: Q04DX003 (ip), vehicle: saline with Tween-80.
Setting [4] is: endpoint: mean survival time, dose: 400.0 mg/kg/injection, schedule: Q04DX003 (ip), vehicle: saline with Tween-80.
Setting [5] is: endpoint: mean survival time, dose: 100.0 mg/kg/injection, schedule: Q01DX009 (ip), vehicle: saline.
The mark [6] stands for this setting: endpoint: mean survival time, dose: 200.0 mg/kg/injection, schedule: Q01DX009 (ip), vehicle: saline.
Where [7] appears, read: endpoint: mean survival time, dose: 400.0 mg/kg/injection, schedule: Q01DX009 (ip), vehicle: saline.
The mark [8] stands for this setting: endpoint: mean survival time, dose: 50.0 mg/kg/injection, schedule: Q01DX009 (ip), vehicle: saline with Tween-80.
[9] abbreviates: endpoint: mean survival time, dose: 100.0 mg/kg/injection, schedule: Q01DX009 (ip), vehicle: saline with Tween-80.
Where [10] appears, read: endpoint: mean survival time, dose: 200.0 mg/kg/injection, schedule: Q01DX009 (ip), vehicle: saline with Tween-80.
[11] abbreviates: endpoint: mean survival time, dose: 25.0 mg/kg/injection, schedule: Q01DX009 (ip), vehicle: saline with Tween-80.
Setting [12] is: endpoint: mean survival time, dose: 100.0 mg/kg/injection, schedule: Q04DX003 (ip), vehicle: saline sonified.
[13] abbreviates: endpoint: mean survival time, dose: 200.0 mg/kg/injection, schedule: Q04DX003 (ip), vehicle: saline sonified.

Inconclusive results and toxic doses are left out.

Regarding `CC(C)OC(=O)CCl`, the T/C is, setting by setting: under setting [1], 100 % of control; (endpoint: mean survival time, dose: 200.0 mg/kg/injection, schedule: Q01DX001 (ip), vehicle: saline with Tween-80) 100 % of control.

Regarding `O=c1[nH]cc(NCCCc2ccccc2)c(=O)[nH]1`, the T/C reads like this: under setting [2], 102 % of control; under setting [3], 104 % of control; under setting [4], 96 % of control.

For the molecule `NC(=O)CC(N)CO` (configuration not stated), the T/C by setting is: (endpoint: mean survival time, dose: 50.0 mg/kg/injection, schedule: Q01DX009 (ip), vehicle: saline) 93 % of control; under setting [5], 98 % of control; under setting [6], 95 % of control; under setting [7], 98 % of control.

With `COc1cc(Cl)ccc1NC(=O)Nc1ccc(S(N)(=O)=O)cc1`, the T/C reads like this: under setting [8], 91 % of control; under setting [9], 100 % of control; under setting [10], 91 % of control.

On to `c1ccc(CNc2nnnn2C2CCCCC2)cc1`, for which the T/C by setting is: (endpoint: mean survival time, dose: 25.0 mg/kg/injection, schedule: Q04DX002 (ip), vehicle: saline with Tween-80) 95 % of control; (endpoint: mean survival time, dose: 50.0 mg/kg/injection, schedule: Q04DX002 (ip), vehicle: saline with Tween-80) 91 % of control; (endpoint: mean survival time, dose: 100.0 mg/kg/injection, schedule: Q04DX002 (ip), vehicle: saline with Tween-80) 102 % of control.

Take `NC1CCC(CCCC2CCCC2)CC1` (configuration not stated): the T/C is, setting by setting: (endpoint: mean survival time, dose: 6.25 mg/kg/injection, schedule: Q01DX009 (ip), vehicle: saline with Tween-80) 102 % of control; (endpoint: mean survival time, dose: 12.5 mg/kg/injection, schedule: Q01DX009 (ip), vehicle: saline with Tween-80) 98 % of control; under setting [11], 102 % of control.

As for `C#CCO`, the T/C is 94 % of control (endpoint: mean survival time, dose: 12.0 mg/kg/injection, schedule: Q04DX003 (ip), vehicle: saline); 97 % of control (endpoint: mean survival time, dose: 25.0 mg/kg/injection, schedule: Q04DX003 (ip), vehicle: saline); 103 % of control (endpoint: mean survival time, dose: 50.0 mg/kg/injection, schedule: Q04DX003 (ip), vehicle: saline).

`NC(=S)N/N=C/c1ccccn1`: the T/C (endpoint: mean survival time, dose: 1.56 mg/kg/injection, schedule: Q04DX002 (ip), vehicle: Klucel (hydroxypropylcellulose) (HPC)) was 108 % of control; the T/C (endpoint: mean survival time, dose: 3.12 mg/kg/injection, schedule: Q04DX002 (ip), vehicle: Klucel (hydroxypropylcellulose) (HPC)) is 112 % of control; the T/C (endpoint: mean survival time, dose: 6.25 mg/kg/injection, schedule: Q04DX002 (ip), vehicle: Klucel (hydroxypropylcellulose) (HPC)) is 92 % of control; the T/C (endpoint: mean survival time, dose: 6.7 mg/kg/injection, schedule: Q01DX009 (ip), vehicle: saline with Tween-80) is 151 % of control; the T/C (endpoint: mean survival time, dose: 10.0 mg/kg/injection, schedule: Q01DX009 (ip), vehicle: saline with Tween-80) was 107 % of control; the T/C (endpoint: mean survival time, dose: 15.0 mg/kg/injection, schedule: Q01DX009 (ip), vehicle: saline with Tween-80) is 93 % of control.

For the molecule `c1ccc(P(c2ccccc2)c2ccccc2)cc1`, the T/C reads like this: under setting [8], 96 % of control; under setting [9], 100 % of control; under setting [2], 100 % of control; under setting [10], 98 % of control; under setting [3], 100 % of control; under setting [4], 93 % of control.

Take `OC1CCc2c(Cl)sc(Cl)c21` (configuration not stated): the T/C is, setting by setting: (endpoint: mean survival time, dose: 25.0 mg/kg/injection, schedule: Q01DX001 (ip), vehicle: saline with Tween-80) 92 % of control; (endpoint: mean survival time, dose: 50.0 mg/kg/injection, schedule: Q01DX001 (ip), vehicle: saline with Tween-80) 98 % of control; under setting [1], 98 % of control.

Take `CCOc1ccccc1NC(=O)c1ccc(Cl)cc1`: the T/C was 97 % of control under setting [2], 100 % of control under setting [3] and 103 % of control under setting [4].

In the case of `COC(=O)C1C2CCc3cc(OC)ccc3C2CC(=O)C1(C)C(=O)OC` (configuration not stated), the T/C (endpoint: mean survival time, dose: 100.0 mg/kg/injection, schedule: Q04DX003 (sc), vehicle: steriod suspending solution) is 103 % of control; the T/C (endpoint: mean survival time, dose: 200.0 mg/kg/injection, schedule: Q04DX003 (sc), vehicle: steriod suspending solution) was 95 % of control; the T/C (endpoint: mean survival time, dose: 400.0 mg/kg/injection, schedule: Q04DX003 (sc), vehicle: steriod suspending solution) is 104 % of control.

`COC(OC)c1[nH]c(=S)[nH]c(=O)c1Cc1cccc(Cl)c1`: the T/C reads like this: under setting [12], 95 % of control; under setting [13], 101 % of control; (endpoint: mean survival time, dose: 400.0 mg/kg/injection, schedule: Q04DX003 (ip), vehicle: saline sonified) 108 % of control.

Turning to `O=S(=O)(NC1CCc2ccccc21)c1ccccc1` (configuration not stated), the T/C is 98 % of control under setting [2], 97 % of control under setting [3] and 98 % of control under setting [4].

Turning to `CCOC(=O)C(OC(C)=O)c1ccccc1` (configuration not stated), the T/C is 98 % of control under setting [9]; 93 % of control under setting [10]; 96 % of control (endpoint: mean survival time, dose: 400.0 mg/kg/injection, schedule: Q01DX009 (ip), vehicle: saline with Tween-80).

`CCOC(=O)/C(=C/C(C#N)=C/N(C)C)CC`: the T/C is 93 % of control under setting [12] and 108 % of control under setting [13].

Consider `CC(C)(Cc1ccc([N+](=O)[O-])cc1)[N+](=O)[O-]`, for which the T/C (endpoint: mean survival time, dose: 75.0 mg/kg/injection, schedule: Q01DX001 (ip), vehicle: saline) was 98 % of control and the T/C (endpoint: mean survival time, dose: 150.0 mg/kg/injection, schedule: Q01DX001 (ip), vehicle: saline) is 102 % of control.

As to `N#CCC(C#N)N1CCOCC1` (configuration not stated), the T/C by setting is: under setting [11], 98 % of control; under setting [8], 102 % of control; under setting [9], 102 % of control.

Turning to `O=CC(O)C(O)C(O)C(O)CO` (configuration not stated), the T/C is 93 % of control under setting [5]; 91 % of control under setting [6]; 100 % of control (endpoint: mean survival time, dose: 0.2 grams/kg/injection, schedule: Q03DX003 (ip), vehicle: water); 95 % of control under setting [7]; 108 % of control (endpoint: mean survival time, dose: 0.4 grams/kg/injection, schedule: Q03DX003 (ip), vehicle: water); 107 % of control (endpoint: mean survival time, dose: 0.8 grams/kg/injection, schedule: Q03DX003 (ip), vehicle: water). The T/C was 100 % of control (endpoint: mean survival time, dose: 1.5 grams/kg/injection, schedule: Q03DX003 (ip), vehicle: water); 101 % of control (endpoint: mean survival time, dose: 3.0 grams/kg/injection, schedule: Q03DX003 (ip), vehicle: water); 100 % of control (endpoint: mean survival time, dose: 6.0 grams/kg/injection, schedule: Q03DX003 (ip), vehicle: water); 106 % of control (endpoint: mean survival time, dose: 12.0 grams/kg/injection, schedule: Q03DX003 (ip), vehicle: water); 101 % of control (endpoint: median survival time, dose: 75.0 mg/kg/injection, schedule: Q01DX009 (ip), vehicle: saline); 101 % of control (endpoint: median survival time, dose: 150.0 mg/kg/injection, schedule: Q01DX009 (ip), vehicle: saline). In addition, the T/C runs as follows: (endpoint: median survival time, dose: 300.0 mg/kg/injection, schedule: Q01DX009 (ip), vehicle: saline) 100 % of control; (endpoint: median survival time, dose: 600.0 mg/kg/injection, schedule: Q01DX009 (ip), vehicle: saline) 100 % of control; (endpoint: median survival time, dose: 1200.0 mg/kg/injection, schedule: Q01DX009 (ip), vehicle: saline) 102 % of control.

With `O=C(O)Cc1ccc(O)c(O)c1.[Pt].c1ccc([PH+](c2ccccc2)c2ccccc2)cc1.c1ccc([PH+](c2ccccc2)c2ccccc2)cc1`, the T/C reads like this: (endpoint: median survival time, dose: 10.0 mg/kg/injection, schedule: Q04DX003 (ip), vehicle: saline with Tween-80) 103 % of control; (endpoint: median survival time, dose: 20.0 mg/kg/injection, schedule: Q04DX003 (ip), vehicle: saline with Tween-80) 95 % of control; (endpoint: median survival time, dose: 40.0 mg/kg/injection, schedule: Q04DX003 (ip), vehicle: saline with Tween-80) 101 % of control; (endpoint: median survival time, dose: 50.0 mg/kg/injection, schedule: Q04DX003 (ip), vehicle: saline with Tween-80) 94 % of control; (endpoint: median survival time, dose: 80.0 mg/kg/injection, schedule: Q04DX003 (ip), vehicle: saline with Tween-80) 94 % of control; (endpoint: median survival time, dose: 100.0 mg/kg/injection, schedule: Q04DX003 (ip), vehicle: saline with Tween-80) 94 % of control. The T/C reads like this: (endpoint: median survival time, dose: 200.0 mg/kg/injection, schedule: Q04DX003 (ip), vehicle: saline with Tween-80) 97 % of control; (endpoint: median survival time, dose: 400.0 mg/kg/injection, schedule: Q04DX003 (ip), vehicle: saline with Tween-80) 89 % of control.

Regarding `C[N+](C)(C)CCC[n+]1ccc(CCn2ccc3ccccc32)cc1`, the T/C (endpoint: mean survival time, dose: 100.0 mg/kg/injection, schedule: Q01DX001 (ip), vehicle: saline) is 124 % of control.

Source of the values: PubChem BioAssay AID256 (DTP/NCI, 2004).
